Assay results: ChEMBL document CHEMBL1150744, “Antifungal activity of Trillium grandiflorum constituents” (J Nat Prod, 1988)
Values after ≈ are worked out from the molar mass of the structure shown.

Key:
Saccharomyces cerevisiae = experiment: Antifungal activity against Saccharomyces cerevisiae ATCC 9763 by twofold serial broth dilution assay; type: functional
[1] = Toxicity in ip dosed ICR mouse assessed as morbidity and lethality after 14 days; type: organism-based; settings: in vivo
Candida albicans [2] = experiment: Antifungal activity against Candida albicans NIH B311 after 24 hrs by […]; type: functional; settings: NIH B311, 24 h
[3] = tested on: Trichophyton mentagrophytes; experiment: Antifungal activity against Trichophyton mentagrophytes ATCC 9972 by twofold serial broth dilution assay; type: functional
[4] = Toxicity in iv dosed ICR mouse assessed as morbidity and lethality after 14 days; type: organism-based; settings: in vivo
Candida albicans [5] = experiment: Antifungal activity against Candida albicans WH-D by twofold serial broth dilution assay; type: functional
Aspergillus fumigatus = experiment: Antifungal activity against Aspergillus fumigatus ATCC 26934 by twofold serial broth dilution assay; type: functional
Aspergillus flavus = experiment: Antifungal activity against Aspergillus flavus ATCC 9170 by twofold serial broth dilution assay; type: functional
Cryptococcus neoformans = experiment: Antifungal activity against Cryptococcus neoformans ATCC 32264 by twofold serial broth dilution assay; type: functional
Candida albicans [6] = experiment: Antifungal activity against Candida albicans ATCC 10231 by twofold serial broth dilution assay; type: functional
Candida albicans [7] = experiment: Antifungal activity against Candida albicans NIH B311 infected in ICR mouse assessed as reduction in number of recovered colony forming units at 0.5 mg/kg, ip administered after 7 hrs inoculation measured after 16 hrs; type: functional; parameters: scale not given: the % may be the effect or the level left; settings: route intraperitoneal

C[C@@H]1CC[C@@]2(OC1)O[C@H]1C[C@H]3[C@@H]4CC=C5C[C@@H](O[C@@H]6O[C@H](CO)[C@@H](O[C@@H]7O[C@@H](C)[C@H](O[C@@H]8O[C@@H](C)[C@H](O)[C@@H](O)[C@H]8O)[C@@H](O)[C@H]7O)[C@H](O)[C@H]6O[C@@H]6O[C@@H](C)[C@H](O)[C@@H](O)[C@H]6O)CC[C@]5(C)[C@H]4CC[C@]3(C)[C@H]1[C@@H]2C [PENNOGENIN RAHAMNOSYL CHACOTRIOSIDE]
MIC (Saccharomyces cerevisiae): 12.5 µg/mL (≈ 12.3 µM) | LD50 at 336 h [1]: 28 mg/kg | MIC (Candida albicans [2]): 6.25 µg/mL (≈ 6.16 µM) | MIC [3]: 3.12 µg/mL (≈ 3.07 µM) | LD50 at 336 h [4]: 5 mg/kg | MIC (Candida albicans [5]): 12.5 µg/mL (≈ 12.3 µM) | MIC (Aspergillus fumigatus): 100 µg/mL (≈ 98.5 µM) | MIC (Aspergillus flavus): 100 µg/mL (≈ 98.5 µM) | MIC (Cryptococcus neoformans): 12.5 µg/mL (≈ 12.3 µM) | MIC (Candida albicans [6]): 12.5 µg/mL (≈ 12.3 µM)

C[C@@H]1CC[C@@]2(OC1)O[C@H]1C[C@H]3[C@@H]4CC=C5C[C@@H](O[C@@H]6O[C@H](CO)[C@@H](O[C@@H]7O[C@@H](C)[C@H](O)[C@@H](O)[C@H]7O)[C@H](O)[C@H]6O[C@@H]6O[C@@H](C)[C@H](O)[C@@H](O)[C@H]6O)CC[C@]5(C)[C@H]4CC[C@]3(C)[C@H]1[C@@H]2C [DIOSCIN]
MIC (Saccharomyces cerevisiae): 25 µg/mL (≈ 28.8 µM) | LD50 at 336 h [1]: 38 mg/kg | MIC (Candida albicans [2]): 1.56 µg/mL (≈ 1.8 µM) | MIC [3]: 6.25 µg/mL (≈ 7.19 µM) | LD50 at 336 h [4]: 10 mg/kg | MIC (Candida albicans [5]): 6.25 µg/mL (≈ 7.19 µM) | MIC (Aspergillus fumigatus): 50 µg/mL (≈ 57.5 µM) | MIC (Aspergillus flavus): 100 µg/mL (≈ 115 µM) | MIC (Cryptococcus neoformans): 25 µg/mL (≈ 28.8 µM) | MIC (Candida albicans [6]): 3.12 µg/mL (≈ 3.59 µM)

C[C@@H]1[C@H](O)[C@@H](C)/C=C/C=C/C=C/C=C/C=C/C=C/C=C/[C@H](O[C@@H]2O[C@H](C)[C@@H](O)[C@H](N)[C@@H]2O)C[C@@H]2O[C@](O)(C[C@@H](O)C[C@@H](O)[C@H](O)CC[C@@H](O)C[C@@H](O)CC(=O)O[C@H]1C)C[C@H](O)[C@H]2C(=O)O [AMPHOTERICIN B]
MIC (Saccharomyces cerevisiae): 25 µg/mL (≈ 27.1 µM) | Activity (Candida albicans [7]): 97.5% | MIC (Candida albicans [2]): 0.39 µg/mL (≈ 0.422 µM) | MIC [3]: 50 µg/mL (≈ 54.1 µM) | LD50 at 336 h [4]: 1 mg/kg | MIC (Candida albicans [5]): 0.78 µg/mL (≈ 0.844 µM) | MIC (Aspergillus fumigatus): 100 µg/mL (≈ 108 µM) | MIC (Aspergillus flavus): 50 µg/mL (≈ 54.1 µM) | MIC (Cryptococcus neoformans): 1.56 µg/mL (≈ 1.69 µM) | MIC (Candida albicans [6]): 1.56 µg/mL (≈ 1.69 µM)
